PubChem BioAssay (NCI)
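96-well plates; 48 h exposure; 5 concentrations. Endpoints by linear interpolation between flanking doses. Not reached: highest tested concentration assigned. Here, GI50 denotes the concentration required for 50% inhibition of growth. Definition used: TGI = concentration required for complete inhibition of growth.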

Columns and labels:
Assay in all cases: NCI anticancer screen, dose series, 48 h
HCC-2998 colon = system: HCC-2998 colon
MDA-MB-435 = system: MDA-MB-435
ACHN renal = system: ACHN renal
BT-549 breast = system: BT-549 breast
HOP-62 NSCLC = system: HOP-62 NSCLC
SW-620 colon = system: SW-620 colon
HOP-92 NSCLC = system: HOP-92 NSCLC
RPMI-8226 leukemia = system: RPMI-8226 leukemia
MOLT-4 leukemia = system: MOLT-4 leukemia
HL-60(TB) leukemia = system: HL-60(TB) leukemia
SK-MEL-2 melanoma = system: SK-MEL-2 melanoma
OVCAR-3 ovarian = system: OVCAR-3 ovarian
DU-145 prostate = system: DU-145 prostate
IGROV1 ovarian = system: IGROV1 ovarian
SK-OV-3 ovarian = system: SK-OV-3 ovarian
UO-31 renal = system: UO-31 renal
M14 melanoma = system: M14 melanoma
HCT-15 colon = system: HCT-15 colon
SK-MEL-5 melanoma = system: SK-MEL-5 melanoma
COLO 205 colon = system: COLO 205 colon
SF-268 CNS = system: SF-268 CNS
SR leukemia = system: SR leukemia
SNB-19 CNS = system: SNB-19 CNS
A498 renal = system: A498 renal
SN12C renal = system: SN12C renal
UACC-62 melanoma = system: UACC-62 melanoma
SNB-75 CNS = system: SNB-75 CNS
SF-539 CNS = system: SF-539 CNS
MALME-3M melanoma = system: MALME-3M melanoma
SK-MEL-28 melanoma = system: SK-MEL-28 melanoma
NCI-H522 lung = system: NCI-H522 lung
CAKI-1 renal = system: CAKI-1 renal
MDA-N = system: MDA-N
786-0 renal = system: 786-0 renal
OVCAR-8 ovarian = system: OVCAR-8 ovarian
NCI/ADR-RES ovarian = system: NCI/ADR-RES ovarian
KM12 colon = system: KM12 colon
A549 NSCLC = system: A549 NSCLC
MDA-MB-231 breast = system: MDA-MB-231 breast
MCF7 breast = system: MCF7 breast
EKVX NSCLC = system: EKVX NSCLC
OVCAR-5 ovarian = system: OVCAR-5 ovarian
HT29 colon = system: HT29 colon
HCT-116 colon = system: HCT-116 colon
K-562 leukemia = system: K-562 leukemia
T-47D breast = system: T-47D breast
SF-295 CNS = system: SF-295 CNS
U251 CNS = system: U251 CNS
PC-3 prostate = system: PC-3 prostate
CCRF-CEM leukemia = system: CCRF-CEM leukemia
LOX IMVI melanoma = system: LOX IMVI melanoma
OVCAR-4 ovarian = system: OVCAR-4 ovarian
RXF 393 renal = system: RXF 393 renal
TK-10 renal = system: TK-10 renal
HS 578T breast = system: HS 578T breast
UACC-257 melanoma = system: UACC-257 melanoma
NCI-H226 lung = system: NCI-H226 lung
NCI-H23 lung = system: NCI-H23 lung
NCI-H460 lung = system: NCI-H460 lung

## CCOP(C)(=O)C(Cc1c[nH]c2ccccc12)C(=O)O (stereo unspecified)
HCC-2998 colon
  TGI: > 100 µM
MDA-MB-435
  TGI: > 100 µM
ACHN renal
  TGI: > 100 µM
BT-549 breast
  TGI: > 100 µM
HOP-62 NSCLC
  TGI: > 100 µM
SW-620 colon
  TGI: > 100 µM
HOP-92 NSCLC
  TGI: > 100 µM
RPMI-8226 leukemia
  TGI: > 100 µM
MOLT-4 leukemia
  TGI: > 100 µM
HL-60(TB) leukemia
  TGI: > 100 µM
SK-MEL-2 melanoma
  TGI: > 100 µM
OVCAR-3 ovarian
  TGI: > 100 µM
DU-145 prostate
  TGI: > 100 µM
IGROV1 ovarian
  TGI: > 100 µM
SK-OV-3 ovarian
  TGI: > 100 µM
UO-31 renal
  TGI: > 100 µM
M14 melanoma
  TGI: > 100 µM
HCT-15 colon
  TGI: > 100 µM
SK-MEL-5 melanoma
  TGI: > 100 µM
COLO 205 colon
  TGI: > 100 µM
SF-268 CNS
  TGI: > 100 µM
SR leukemia
  TGI: > 100 µM
SNB-19 CNS
  TGI: > 100 µM
A498 renal
  TGI: > 100 µM
SN12C renal
  TGI: > 100 µM
UACC-62 melanoma
  TGI: > 100 µM
SNB-75 CNS
  TGI: > 100 µM
SF-539 CNS
  TGI: > 100 µM
MALME-3M melanoma
  TGI: > 100 µM
SK-MEL-28 melanoma
  TGI: > 100 µM
NCI-H522 lung
  TGI: > 100 µM
CAKI-1 renal
  TGI: > 100 µM
MDA-N
  TGI: > 100 µM
786-0 renal
  TGI: > 100 µM
OVCAR-8 ovarian
  TGI: > 100 µM
NCI/ADR-RES ovarian
  TGI: > 100 µM
KM12 colon
  TGI: > 100 µM
A549 NSCLC
  TGI: > 100 µM
MDA-MB-231 breast
  TGI: > 100 µM
MCF7 breast
  TGI: > 100 µM
EKVX NSCLC
  TGI: > 100 µM
OVCAR-5 ovarian
  TGI: > 100 µM
HT29 colon
  TGI: > 100 µM
HCT-116 colon
  TGI: > 100 µM
K-562 leukemia
  TGI: > 100 µM
T-47D breast
  TGI: > 100 µM
SF-295 CNS
  TGI: > 100 µM
U251 CNS
  TGI: > 100 µM
PC-3 prostate
  TGI: > 100 µM
CCRF-CEM leukemia
  TGI: > 100 µM

## COc1cc(-c2nc(Nc3nc4ccccc4[nH]3)nc(N)c2C#N)cc(OC)c1OC
HCC-2998 colon
  GI50: > 40.8 µM
  TGI: > 100 µM
MDA-MB-435
  GI50: 0.0886 µM
  TGI: 16.7 µM
ACHN renal
  GI50: 14.5 µM
  TGI: > 100 µM
LOX IMVI melanoma
  GI50: 6.37 µM
  TGI: 41.4 µM
BT-549 breast
  GI50: 0.857 µM
  TGI: 37.1 µM
HOP-62 NSCLC
  GI50: 5.04 µM
  TGI: 53.2 µM
SW-620 colon
  GI50: 1.85 µM
  TGI: 26.1 µM
HOP-92 NSCLC
  GI50: 0.341 µM
  TGI: 31.8 µM
RPMI-8226 leukemia
  GI50: 12.5 µM
  TGI: > 100 µM
OVCAR-4 ovarian
  GI50: 12.9 µM
  TGI: 34.7 µM
MOLT-4 leukemia
  GI50: 18.2 µM
  TGI: > 100 µM
RXF 393 renal
  GI50: 0.378 µM
  TGI: 23.7 µM
HL-60(TB) leukemia
  GI50: 0.991 µM
  TGI: > 100 µM
TK-10 renal
  GI50: 30.7 µM
  TGI: > 100 µM
SK-MEL-2 melanoma
  GI50: 2.69 µM
  TGI: 34 µM
OVCAR-3 ovarian
  GI50: 0.286 µM
  TGI: 3.61 µM
DU-145 prostate
  GI50: 10.9 µM
  TGI: 35.6 µM
IGROV1 ovarian
  GI50: 6.2 µM
  TGI: > 54 µM
SK-OV-3 ovarian
  GI50: 4.4 µM
  TGI: 56.8 µM
UO-31 renal
  GI50: 85.7 µM
  TGI: > 100 µM
M14 melanoma
  GI50: 2.34 µM
  TGI: 36.5 µM
HCT-15 colon
  GI50: 18.1 µM
  TGI: > 100 µM
SK-MEL-5 melanoma
  GI50: 0.414 µM
  TGI: 16.2 µM
COLO 205 colon
  GI50: 1.74 µM
  TGI: > 50.7 µM
SF-268 CNS
  GI50: > 53.2 µM
  TGI: > 100 µM
SR leukemia
  GI50: 0.23 µM
  TGI: > 100 µM
SNB-19 CNS
  GI50: 21 µM
  TGI: > 100 µM
A498 renal
  GI50: 0.424 µM
  TGI: 22 µM
SN12C renal
  GI50: 29.1 µM
  TGI: > 100 µM
UACC-62 melanoma
  GI50: 4.65 µM
  TGI: > 59.7 µM
HS 578T breast
  GI50: 0.33 µM
  TGI: > 100 µM
SNB-75 CNS
  GI50: 0.308 µM
  TGI: 49.9 µM
UACC-257 melanoma
  GI50: > 100 µM
  TGI: > 100 µM
SF-539 CNS
  GI50: 10.7 µM
  TGI: 36.2 µM
NCI-H226 lung
  GI50: 32.7 µM
  TGI: > 89.3 µM
MALME-3M melanoma
  GI50: 21.7 µM
  TGI: > 80.1 µM
SK-MEL-28 melanoma
  GI50: 19.1 µM
  TGI: > 100 µM
NCI-H522 lung
  GI50: 0.45 µM
  TGI: 3.61 µM
CAKI-1 renal
  GI50: 6.04 µM
  TGI: > 60.6 µM
NCI-H23 lung
  GI50: 12.2 µM
  TGI: 40.2 µM
786-0 renal
  GI50: 20.2 µM
  TGI: > 100 µM
OVCAR-8 ovarian
  GI50: 28.9 µM
  TGI: > 100 µM
NCI/ADR-RES ovarian
  GI50: > 100 µM
  TGI: > 100 µM
KM12 colon
  GI50: 0.714 µM
  TGI: > 100 µM
A549 NSCLC
  GI50: 30.7 µM
  TGI: > 100 µM
MDA-MB-231 breast
  GI50: 13.1 µM
  TGI: 92.4 µM
MCF7 breast
  GI50: 0.503 µM
  TGI: > 33.8 µM
EKVX NSCLC
  GI50: 41.4 µM
  TGI: > 100 µM
OVCAR-5 ovarian
  GI50: 27.8 µM
  TGI: > 86.4 µM
HT29 colon
  GI50: 0.877 µM
  TGI: 24.1 µM
HCT-116 colon
  GI50: 4.52 µM
  TGI: 25.8 µM
NCI-H460 lung
  GI50: 1.77 µM
  TGI: > 54.2 µM
K-562 leukemia
  GI50: 8.45 µM
  TGI: > 100 µM
T-47D breast
  GI50: 4.27 µM
  TGI: 52.8 µM
SF-295 CNS
  GI50: 0.191 µM
U251 CNS
  GI50: 10.8 µM
  TGI: 72.4 µM
PC-3 prostate
  GI50: 1.65 µM
  TGI: > 93.3 µM
CCRF-CEM leukemia
  GI50: 6.17 µM
  TGI: > 100 µM

## N#Cc1ccc(Oc2nc3ccccc3nc2-c2ccccc2)cc1
HCC-2998 colon
  TGI: > 100 µM
MDA-MB-435
  TGI: > 100 µM
ACHN renal
  TGI: > 100 µM
LOX IMVI melanoma
  TGI: > 100 µM
BT-549 breast
  TGI: > 100 µM
HOP-62 NSCLC
  TGI: > 100 µM
SW-620 colon
  TGI: > 100 µM
HOP-92 NSCLC
  TGI: > 100 µM
RPMI-8226 leukemia
  TGI: > 100 µM
OVCAR-4 ovarian
  TGI: > 100 µM
MOLT-4 leukemia
  TGI: > 100 µM
RXF 393 renal
  TGI: > 100 µM
HL-60(TB) leukemia
  TGI: > 100 µM
TK-10 renal
  TGI: > 100 µM
SK-MEL-2 melanoma
  TGI: > 100 µM
OVCAR-3 ovarian
  TGI: > 100 µM
DU-145 prostate
  TGI: > 100 µM
IGROV1 ovarian
  TGI: > 100 µM
SK-OV-3 ovarian
  TGI: > 100 µM
UO-31 renal
  TGI: > 100 µM
HCT-15 colon
  TGI: > 100 µM
SK-MEL-5 melanoma
  TGI: > 100 µM
COLO 205 colon
  TGI: > 100 µM
SF-268 CNS
  TGI: > 100 µM
SNB-19 CNS
  TGI: > 100 µM
A498 renal
  TGI: > 100 µM
SN12C renal
  TGI: > 100 µM
UACC-62 melanoma
  TGI: > 100 µM
HS 578T breast
  TGI: > 100 µM
UACC-257 melanoma
  TGI: > 100 µM
NCI-H226 lung
  TGI: > 100 µM
MALME-3M melanoma
  TGI: > 100 µM
SK-MEL-28 melanoma
  TGI: > 100 µM
NCI-H522 lung
  TGI: > 100 µM
CAKI-1 renal
  TGI: > 100 µM
MDA-N
  TGI: > 100 µM
NCI-H23 lung
  TGI: > 100 µM
786-0 renal
  TGI: > 100 µM
KM12 colon
  TGI: > 100 µM
MDA-MB-231 breast
  TGI: > 100 µM
MCF7 breast
  TGI: > 100 µM
EKVX NSCLC
  TGI: > 100 µM
OVCAR-5 ovarian
  TGI: > 100 µM
HT29 colon
  TGI: > 100 µM
HCT-116 colon
  TGI: > 100 µM
NCI-H460 lung
  TGI: > 100 µM
K-562 leukemia
  TGI: > 100 µM
SF-295 CNS
  TGI: > 100 µM
U251 CNS
  TGI: > 100 µM
PC-3 prostate
  TGI: > 100 µM
CCRF-CEM leukemia
  TGI: > 100 µM
